Source: patent publication US11078170B2 (Assembly Biosciences, Inc., priority 2017, dated 2021)

Each molecule was assayed on HBV viral production from HepAD38 cells (assay: Activity of test compounds on viral production from HepAD38 cells (viral load by qPCR of HBV core sequence in supernatant)). Conditions: Hepatitis B virus, 120 h, 5 days incubation, HBV DNA in supernatant by qPCR, top concentration 10 μM, read-out: Viral Load EC50 Activity range.
Type: cell-based
In short: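 HepAD38 cells, 50,000/well in tetracycline-free 2% FBS medium, treated 5 days at 37° C. with compound from 10 μM top concentration. HBV DNA in supernatant quantified by TaqMan qPCR of core sequence against DNA standards, relative to DMSO wells; CellTiter-Glo viability read in parallel. EC50/CC50 from four-parameter logistic fit.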

Question: How did the EC50 turn out when `CN1[C@H](C(=O)Nc2ccc(F)c(Cl)c2)C[C@H](C2CCCC2)NS1(=O)=O` [HBV-CSU-222-ISO-I, Cis-N-(3-chloro-4-fluorophenyl)-5-cyclopentyl-2-methyl-1,2,6-thiadiazinane-3-carboxamide 1,1-dioxide] was run?
Answer: < 1000 nM

Question: How did the EC50 turn out when `CN1[C@@H](C(=O)Nc2ccc(F)c(Cl)c2)C[C@@H](C2CCCC2)NS1(=O)=O` [HBV-CSU-222-ISO-II, Cis-N-(3-chloro-4-fluorophenyl)-5-cyclopentyl-2-methyl-1,2,6-thiadiazinane-3-carboxamide 1,1-dioxide] was run?
Answer: 1000 to 5000 nM

Question: For `Cc1ncc([C@H]2C[C@@H](C(=O)Nc3ccc(F)c(Cl)c3)N(C)S(=O)(=O)N2)s1` [HBV-CSU-224-ISO-I, Cis-N-(3-Chloro-4-fluorophenyl)-2-methyl-5-(2-methylthiazol-5-yl)-1,2,6-thiadiazinane-3-carboxamide 1,1-dioxide], which EC50 is on record?
Answer: < 1000 nM

Question: For `Cc1ncc([C@@H]2C[C@H](C(=O)Nc3ccc(F)c(Cl)c3)N(C)S(=O)(=O)N2)s1` [HBV-CSU-224-ISO-II, Cis-N-(3-Chloro-4-fluorophenyl)-2-methyl-5-(2-methylthiazol-5-yl)-1,2,6-thiadiazinane-3-carboxamide 1,1-dioxide], which EC50 is on record?
Answer: > 5000 nM

Question: How did the EC50 turn out when `CN1C(C(=O)Nc2ccc(F)c(Cl)c2)CC(c2cnc(C(F)(F)F)s2)NS1(=O)=O` (stereo not drawn) [HBV-CSU-226, Cis-N-(3-chloro-4-fluorophenyl)-2-methyl-5-(2-(trifluoromethyl)thiazol-5-yl)-1,2,6-thiadiazinane-3-carboxamide 1,1-dioxide] was run?
Answer: 1000 to 5000 nM

Question: With `CN1[C@H](C(=O)Nc2ccc(F)c(Cl)c2)C[C@H](c2ccc(F)c(F)c2)NS1(=O)=O` [HBV-CSU-230-ISO-I, Cis-N-(3-Chloro-4-fluorophenyl)-5-(3,4-difluorophenyl)-2-methyl-1,2,6-thiadiazinane-3-carboxamide 1,1-dioxide] as the molecule, how does the EC50 read?
Answer: < 1000 nM

Question: Which EC50 does the source give for `CN1[C@@H](C(=O)Nc2ccc(F)c(Cl)c2)C[C@@H](c2ccc(F)c(F)c2)NS1(=O)=O` [HBV-CSU-230-ISO-II, Cis-N-(3-Chloro-4-fluorophenyl)-5-(3,4-difluorophenyl)-2-methyl-1,2,6-thiadiazinane-3-carboxamide 1,1-dioxide] here?
Answer: > 5000 nM

Question: `CN1[C@@H](C(=O)Nc2ccc(F)c(Cl)c2)C[C@@H](c2cccc(F)c2)NS1(=O)=O` [HBV-CSU-231-ISO-II, Cis-N-(3-Chloro-4-fluorophenyl)-5-(3-fluorophenyl)-2-methyl-1,2,6-thiadiazinane-3-carboxamide 1,1-dioxide] was tested. Which EC50 did it give?
Answer: > 5000 nM

Question: How did the EC50 turn out when `CN1C(C(=O)Nc2ccc(F)c(Cl)c2)CC(c2cnc(-c3ccccc3)s2)NS1(=O)=O` (stereo not drawn) [HBV-CSU-235, N-(3-Chloro-4-fluorophenyl)-2-methyl-5-(2-phenylthiazol-5-yl)-1,2,6-thiadiazinane-3-carboxamide 1,1-dioxide] was run?
Answer: < 1000 nM

Question: How did the EC50 turn out when `CN1[C@H](C(=O)Nc2ccc(F)c(Cl)c2)C[C@H](c2cnc(-c3ccccc3)s2)NS1(=O)=O` [HBV-CSU-235-ISO-I, N-(3-Chloro-4-fluorophenyl)-2-methyl-5-(2-phenylthiazol-5-yl)-1,2,6-thiadiazinane-3-carboxamide 1,1-dioxide] was run?
Answer: < 1000 nM

Question: How did the EC50 turn out when `CN1[C@@H](C(=O)Nc2ccc(F)c(Cl)c2)C[C@@H](c2cnc(-c3ccccc3)s2)NS1(=O)=O` [HBV-CSU-235-ISO-II, N-(3-Chloro-4-fluorophenyl)-2-methyl-5-(2-phenylthiazol-5-yl)-1,2,6-thiadiazinane-3-carboxamide 1,1-dioxide] was run?
Answer: > 5000 nM

Question: With `CN1[C@@H](C(=O)Nc2ccc(F)c(Cl)c2)C[C@@H](c2ccc(-c3ccc(F)cc3)s2)NS1(=O)=O` [HBV-CSU-238-ISO-II] as the molecule, how does the EC50 read?
Answer: 1000 to 5000 nM

Question: How did the EC50 turn out when `CN1[C@H](C(=O)Nc2ccc(F)c(Cl)c2)C[C@H](c2ccc(-c3ccc(F)cc3)s2)NS1(=O)=O` [HBV-CSU-238-ISO-I] was run?
Answer: < 1000 nM

Question: For `CN1C(C(=O)Nc2ccc(F)c(Cl)c2)CC(c2ccc(-c3ccc(F)cc3)s2)NS1(=O)=O` (stereo not drawn) [HBV-CSU-238], which EC50 is on record?
Answer: < 1000 nM

Question: For `CN1[C@@H](C(=O)Nc2ccc(F)c(Cl)c2)C[C@@H](c2cc(-c3ccc(F)cc3)cs2)NS1(=O)=O` [HBV-CSU-239-ISO-II], which EC50 is on record?
Answer: 1000 to 5000 nM

Question: With `CN1[C@H](C(=O)Nc2ccc(F)c(Cl)c2)C[C@H](c2cc(-c3ccc(F)cc3)cs2)NS1(=O)=O` [HBV-CSU-239-ISO-I] as the molecule, how does the EC50 read?
Answer: < 1000 nM

Question: With `CN1C(C(=O)Nc2ccc(F)c(Cl)c2)CC(c2cc(-c3ccc(F)cc3)cs2)NS1(=O)=O` (stereo not drawn) [HBV-CSU-239] as the molecule, how does the EC50 read?
Answer: < 1000 nM

Question: With `COc1ccc(-c2ccc([C@@H]3C[C@H](C(=O)Nc4ccc(F)c(Cl)c4)N(C)S(=O)(=O)N3)s2)cc1` [HBV-CSU-240-ISO-II] as the molecule, how does the EC50 read?
Answer: 1000 to 5000 nM

Question: Which EC50 does the source give for `COc1ccc(-c2ccc([C@H]3C[C@@H](C(=O)Nc4ccc(F)c(Cl)c4)N(C)S(=O)(=O)N3)s2)cc1` [HBV-CSU-240-ISO-I] here?
Answer: < 1000 nM

Question: How did the EC50 turn out when `COc1ccc(-c2csc([C@@H]3C[C@H](C(=O)Nc4ccc(F)c(Cl)c4)N(C)S(=O)(=O)N3)c2)cc1` [HBV-CSU-241-ISO-II] was run?
Answer: 1000 to 5000 nM

Question: Which EC50 does the source give for `COc1ccc(-c2csc([C@H]3C[C@@H](C(=O)Nc4ccc(F)c(Cl)c4)N(C)S(=O)(=O)N3)c2)cc1` [HBV-CSU-241-ISO-I] here?
Answer: < 1000 nM

Question: With `COc1ccc(-c2csc(C3CC(C(=O)Nc4ccc(F)c(Cl)c4)N(C)S(=O)(=O)N3)c2)cc1` (stereo not drawn) [HBV-CSU-241] as the molecule, how does the EC50 read?
Answer: < 1000 nM

Question: `CN1[C@H](C(=O)Nc2ccc(F)c(Cl)c2)C[C@H](c2ccc(-c3ccc(F)cn3)s2)NS1(=O)=O` [HBV-CSU-242-ISO-I, Cis-N-(3-chloro-4-fluorophenyl)-5-(5-(5-fluoropyridin-2-yl)thiophen-2-yl)-2-methyl-1,2,6-thiadiazinane-3-carboxamide 1,1-dioxide] was tested. Which EC50 did it give?
Answer: < 1000 nM

Question: Which EC50 does the source give for `CN1[C@@H](C(=O)Nc2ccc(F)c(Cl)c2)C[C@@H](c2ccc(-c3ccc(F)cn3)s2)NS1(=O)=O` [HBV-CSU-242-ISO-II, Cis-N-(3-chloro-4-fluorophenyl)-5-(5-(5-fluoropyridin-2-yl)thiophen-2-yl)-2-methyl-1,2,6-thiadiazinane-3-carboxamide 1,1-dioxide] here?
Answer: > 5000 nM

Question: With `CN1[C@@H](C(=O)Nc2ccc(F)c(Cl)c2)C[C@@H](c2ccc(-c3cn[nH]c3)s2)NS1(=O)=O` [HBV-CSU-244-ISO-II] as the molecule, how does the EC50 read?
Answer: < 1000 nM

Question: `CN1[C@H](C(=O)Nc2ccc(F)c(Cl)c2)C[C@H](c2ccc(-c3cn[nH]c3)s2)NS1(=O)=O` [HBV-CSU-244-ISO-I] was tested. Which EC50 did it give?
Answer: < 1000 nM

Question: With `CN1C(C(=O)Nc2ccc(F)c(Cl)c2)CC(c2ccc(-c3cn[nH]c3)s2)NS1(=O)=O` (stereo not drawn) [HBV-CSU-244] as the molecule, how does the EC50 read?
Answer: < 1000 nM

Question: `CN1[C@@H](C(=O)Nc2ccc(F)c(Cl)c2)C[C@@H](c2cc(-c3cn[nH]c3)cs2)NS1(=O)=O` [HBV-CSU-245-ISO-II] was tested. Which EC50 did it give?
Answer: < 1000 nM

Question: For `CN1[C@H](C(=O)Nc2ccc(F)c(Cl)c2)C[C@H](c2cc(-c3cn[nH]c3)cs2)NS1(=O)=O` [HBV-CSU-245-ISO-I], which EC50 is on record?
Answer: < 1000 nM

Question: Which EC50 does the source give for `CN1C(C(=O)Nc2ccc(F)c(Cl)c2)CC(c2cc(-c3cn[nH]c3)cs2)NS1(=O)=O` (stereo not drawn) [HBV-CSU-245] here?
Answer: < 1000 nM

Question: For `CN1[C@H](C(=O)Nc2ccc(F)c(Cl)c2)C[C@H](c2ccc(-c3cnn(C)c3)cc2)NS1(=O)=O` [HBV-CSU-246-ISO-II, Cis-N-(3-Chloro-4-fluorophenyl)-2-methyl-5-(4-(1-methyl-1H-pyrazol-4-yl)phenyl)-1,2,6-thiadiazinane-3-carboxamide 1,1-dioxide], which EC50 is on record?
Answer: < 1000 nM

Question: With `CN1[C@H](C(=O)Nc2ccc(F)c(Cl)c2)C[C@H](c2cccc(-c3cnn(C)c3)c2)NS1(=O)=O` [HBV-CSU-247-ISO-I, Cis-N-(3-chloro-4-fluorophenyl)-2-methyl-5-(3-(1-methyl-1H-pyrazol-4-yl)phenyl)-1,2,6-thiadiazinane-3-carboxamide 1,1-dioxide] as the molecule, how does the EC50 read?
Answer: > 5000 nM

Question: Which EC50 does the source give for `CN1[C@@H](C(=O)Nc2ccc(F)c(Cl)c2)C[C@@H](c2cccc(-c3cnn(C)c3)c2)NS1(=O)=O` [HBV-CSU-247-ISO-II, Cis-N-(3-chloro-4-fluorophenyl)-2-methyl-5-(3-(1-methyl-1H-pyrazol-4-yl)phenyl)-1,2,6-thiadiazinane-3-carboxamide 1,1-dioxide] here?
Answer: < 1000 nM

Question: `CN1[C@H](C(=O)Nc2ccc(F)c(Cl)c2)C[C@H](c2ncc(-c3ccc(F)cc3)s2)NS1(=O)=O` [HBV-CSU-248-ISO-I, Cis-N-(3-Chloro-4-fluorophenyl)-5-(5-(4-fluorophenyl)thiazol-2-yl)-2-methyl-1,2,6-thiadiazinane-3-carboxamide 1,1-dioxide] was tested. Which EC50 did it give?
Answer: < 1000 nM

Question: `CN1[C@@H](C(=O)Nc2ccc(F)c(Cl)c2)C[C@@H](c2ncc(-c3ccc(F)cc3)s2)NS1(=O)=O` [HBV-CSU-248-ISO-II, Cis-N-(3-Chloro-4-fluorophenyl)-5-(5-(4-fluorophenyl)thiazol-2-yl)-2-methyl-1,2,6-thiadiazinane-3-carboxamide 1,1-dioxide] was tested. Which EC50 did it give?
Answer: > 5000 nM

Question: With `COc1ccc(-c2cnc([C@H]3C[C@@H](C(=O)Nc4ccc(F)c(Cl)c4)N(C)S(=O)(=O)N3)s2)cc1` [HBV-CSU-250-ISO-I, Cis-N-(3-Chloro-4-fluorophenyl)-5-(5-(4-methoxyphenyl)thiazol-2-yl)-2-methyl-1,2,6-thiadiazinane-3-carboxamide 1,1-dioxide] as the molecule, how does the EC50 read?
Answer: < 1000 nM

Question: Which EC50 does the source give for `COc1ccc(-c2cnc([C@@H]3C[C@H](C(=O)Nc4ccc(F)c(Cl)c4)N(C)S(=O)(=O)N3)s2)cc1` [HBV-CSU-250-ISO-II, Cis-N-(3-Chloro-4-fluorophenyl)-5-(5-(4-methoxyphenyl)thiazol-2-yl)-2-methyl-1,2,6-thiadiazinane-3-carboxamide 1,1-dioxide] here?
Answer: 1000 to 5000 nM

Question: With `CN1[C@H](C(=O)Nc2ccc(F)c(Cl)c2)C[C@H](c2ncc(-c3ccc(F)cn3)s2)NS1(=O)=O` [HBV-CSU-252-ISO-I, Cis-N-(3-Chloro-4-fluorophenyl)-5-(5-(5-fluoropyridin-2-yl)thiazol-2-yl)-2-methyl-1,2,6-thiadiazinane-3-carboxamide 1,1-dioxide] as the molecule, how does the EC50 read?
Answer: < 1000 nM

Question: Which EC50 does the source give for `CN1[C@@H](C(=O)Nc2ccc(F)c(Cl)c2)C[C@@H](c2ncc(-c3ccc(F)cn3)s2)NS1(=O)=O` [HBV-CSU-252-ISO-II, Cis-N-(3-Chloro-4-fluorophenyl)-5-(5-(5-fluoropyridin-2-yl)thiazol-2-yl)-2-methyl-1,2,6-thiadiazinane-3-carboxamide 1,1-dioxide] here?
Answer: > 5000 nM
